Assay results taken from patent US20090312367A1, “COMBINATION OF MODAFINIL AND AN ANTAGONIST OR INVERSE AGONIST OF THE H3 RECEPTOR” (Bioprojet, priority 2006, published 2009).

Test system: cats with MPTP-induced parkinsonism
Assay: Parkinson's disease model: wakefulness in cats with MPTP-induced parkinsonism
Format: in vivo
Settings: MPTP-treated cats displaying sleepiness
Text: The inventors also investigated the combination of 1-{3-[3-(4-chlorophenyl)propoxy]propyl}piperidine and modafinil on wakefulness in cats with MPTP-induced parkinsonism. MPTP is a neurotoxin which selectively destroys dopaminergic neurons in the mesencephalon. MPTP-treated animals display sleepiness similar to that seen in many patients.

SMILES: NC(=O)C[S+]([O-])C(c1ccccc1)c1ccccc1 (stereo not shown) [modafinil, 2-benzhydrylsulfinylthanamide]
- wakefulness: only a modest improvement in wakefulness
